What was measured:
[1] = system: New Zealand white rabbits; assay: Rabbit deep medial injury model (carotid artery patency and thrombus weight); type: in vivo; details: for Clot (mgs): mean ±sem
Description: Male New Zealand white rabbits (~4 kg) were anesthetized to surgical anesthesia plane with an IM injection of Ketamine/Xylaxine. The rabbits were placed supine on a restraining board, warmed to 37° C., and the neck and inner thigh area shaved. Teflon catheters were replaced in a marginal ear vein and femoral artery for drug delivery and sample collection respectively. Prior to treatment, blood samples were collected for coagulation tests (APTT and PT). Bleeding time was assessed from a cut made in the cuticle portion of a hind limb nail. Incisions were made in the neck region and the entire left common carotid artery and its branches were surgically isolated. An ultrasonic flow probe (Transonics®) was placed on the common carotid approximately 5 cm caudal to the common-internal bifurcation. After blood flow reached a stable baseline, drugs (saline or test compounds) were delivered via the marginal ear vein. A deflated embolectomy catheter (Fogarty®, 3F) was then introduced into the lumen of the common via an incision in the lingual branch. Blood flow through the artery was stopped briefly while the catheter was introduced and loosely secured with 2-0 silk tie at the incision site. After the catheter was in place and secure, blood flow was restored. The deflated balloon was advanced to within 2 mm of the flow probe and inflated with saline until resistance of the vessel wall was felt. The catheter was pulled back with a steady motion to the first branch and then deflated. This procedure was repeated a total of six times for each experimental animal, after which the catheter was removed. […] Over 40 minutes, blood samples were taken for APTT and PT measurements, cuticle bleeding times were assessed and blood flow through the carotid monitored. Duration of patency was defined as the total amount of time (maximum=40 minutes) that any measurable blood flow is detected in the artery. Patency rate refers to the percentage of animals tested who had carotid artery blood flow ≥5 minutes. At the end of the experiment the rabbit was euthanized and the carotid artery removed and opened. If any thrombus was present, it was removed, blotted and the weight recorded.
[Heparin was dosed as a 25 u/kg bolus followed by a continuous infusion of 1) 0.5 u/kg/min or 2) 1 u/kg/min. Other reagents were given as a 2 mg/kg IV bolus. With the exception of the patency data, values are expressed as means ±sem.]

rabbit plasma = assay: PT clotting time in rabbit plasma; type: biochemical; details: 40 μM, rabbit thromboplastin diluted two-fold
Description: Samples of rabbit plasma were assayed using an MLA 800 coagulometer and Dade reagents. Actin FS® was the activator in the APTT assay. Rabbit Thromboplastin with Ca++ was used for the PT assays; the rabbit thromboplastin was diluted two-fold. All mutant inhibitors tested prolonged clotting by at least one fold. […] A greater than 10 fold prolongation of the clotting time at 40 μM was observed.

normal human plasma = assay: Activated partial thromboplastin time (APTT) assay; type: biochemical
Description: For the activated partial thromboplastin time (APTT) assays, the activation time was set at 120 sec and acquisition time at 300 to 600 sec depending on the expected outcome of the assay. Citrated normal human plasma and inhibitor were incubated together. The sample (plasma and inhibitor) and activator (Instrumentation Laboratories Ellagic acid/Phospholipid mix Test Reagent) were automatically pipetted and incubated together for 2 min at 37° C., then CaCl2 was added and clotting time determined by means of optical assessment. The total incubation time of inhibitor with plasma was ca. 3 min before addition of activator, and 5 min before addition of CaCl2.

TF-FVIIa = TF-FVIIa (Homo sapiens, UniProt P08709); details: read-out: Ki, competitive inhibition of TF-FVIIa activity; cited from earlier work
TF-induced coagulation = details: cited from earlier work
[2] = 25 u/kg bolus then continuous infusion 0.5 u/kg/min
[3] = 25 u/kg bolus then continuous infusion 1 u/kg/min

Sequence of TF-FVIIa (P08709 213-466 limits assumed): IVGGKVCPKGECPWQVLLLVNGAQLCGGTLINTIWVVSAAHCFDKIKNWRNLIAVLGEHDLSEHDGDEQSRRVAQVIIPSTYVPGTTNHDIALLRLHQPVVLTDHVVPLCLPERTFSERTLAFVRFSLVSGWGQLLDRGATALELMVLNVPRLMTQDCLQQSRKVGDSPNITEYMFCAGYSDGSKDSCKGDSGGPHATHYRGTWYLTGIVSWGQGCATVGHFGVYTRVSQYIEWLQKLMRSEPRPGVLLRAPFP
Sequence of TF-FVIIa (P08709 61-212 limits assumed): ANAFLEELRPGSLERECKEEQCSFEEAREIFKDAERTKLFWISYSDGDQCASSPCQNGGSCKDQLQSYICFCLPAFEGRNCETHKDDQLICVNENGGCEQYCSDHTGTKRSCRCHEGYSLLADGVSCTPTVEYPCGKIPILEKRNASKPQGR
Sequence of TF-FVIIa (P13726 33-295 partner): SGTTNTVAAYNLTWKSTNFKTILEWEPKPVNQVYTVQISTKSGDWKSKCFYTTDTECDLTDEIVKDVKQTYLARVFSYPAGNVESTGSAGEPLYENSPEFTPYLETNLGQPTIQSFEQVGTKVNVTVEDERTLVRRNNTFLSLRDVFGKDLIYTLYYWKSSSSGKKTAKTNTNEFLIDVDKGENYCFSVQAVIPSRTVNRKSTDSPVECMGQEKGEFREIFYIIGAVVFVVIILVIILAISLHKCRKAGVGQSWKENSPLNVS

Question: With “Alzheimer's amyloid β-protein precursor inhibitor (VREVCSEQAETGPCRAMISRWYFDVTEGKCAPFFYGGCGGNRNNFDTEEYCMAVCGSA) [APPI]” as the substance, how does the “Patency (%)” value ([1]; 2 mg/kg IV bolus, animals with carotid artery blood flow ≥5 minutes) read?
Answer: 40%

Question: What about the “Clot (mgs)” value ([1]; 2 mg/kg IV bolus, thrombus weight) of the same substance?
Answer: 49.5 ± 18.2 mgs

Question: What about the “PT, fold increase over baseline” value (rabbit plasma) of the same substance?
Answer: 1.4 fold

Question: And the “APTT clotting time, fold prolongation” value (normal human plasma; 40 μM inhibitor, uninhibited clotting time 31 s)?
Answer: 3.6 fold

Question: And the “APTT clotting time, fold prolongation” value (normal human plasma; ca. 7 μM inhibitor)?
Answer: ca. 3 fold

Question: For “Bovine pancreatic trypsin inhibitor [BPTI]”, which Ki (TF-FVIIa) is on record?
Answer: 30 µM

Question: And the “concentration needed to prolong the clotting time 1.4-fold in a PT assay” value (TF-induced coagulation)?
Answer: ca. 75 pM

Question: Which “Patency (%)” value [1, 2] does the source give for Heparin here?
Answer: 67%

Question: And the “Clot (mgs)” value [1, 2]?
Answer: 13.6 ± 4.7 mgs

Question: What about the “Patency (%)” value [1, 3] of the same substance?
Answer: 100%

Question: And the “Clot (mgs)” value [1, 3]?
Answer: 19.1 ± 8.5 mgs

Question: What about the “patency and clot size compared to the saline control (in words)” value ([1]; doses as in Table III) of the same substance?
Answer: significantly prolonged patency and reduced clot size

— patent US5863893A, “Factor VIIa inhibitors from kunitz domain proteins” (Genentech, Inc., priority 1995, dated 1999)
